Measurements taken from patent publication US20250154193A1, “STEROID COMPOUND, AND PREPARATION METHOD THEREFOR AND APPLICATION THEREOF” (CHOLESGEN (SHANGHAI) CO., LTD., priority 2022, published 2025).

Assays:
[1] = test system: liver organoids; test: Real-time quantitative PCR of lipogenesis- and fibrosis-related genes in fatty liver organoids; format: cell-based, mice; conditions: mouse fatty liver organoids, 1 and 3 μM, 72 hours, qPCR
From the text: Liver samples or liver organoid samples were homogenized in TRI Reagent (T9424, Sigma), and total RNA was extracted according to the manufacturer's instructions. Equal amounts of RNA template were used to synthesize cDNA with oligo dT primers and MLV reverse transcriptase (Promega). Quantitative data for genes were collected using the Bio-Rad CFX96 real-time PCR system, and the relative amount of gene mRNA was quantified using the comparative CT method.
C57BL/6N mice were fed with fatty liver-inducing diet (TrophicDiet, TP2630052A, containing 10.2% kcal protein, 37.3% kcal carbohydrate, and 52.6% kcal fat) and fructose-containing drinking water (23.1 g of fructose and 18.9 g of dextrose were dissolved in 1 L of water, then filtered and sterilized) for a total of 16 weeks starting at 12 weeks of age to generate a fatty liver model. To generate fatty liver organoids, liver tissues from mice with fatty liver were minced and digested in digestion buffer at 37° C. for 30 to 60 minutes. The digestion buffer included DMEM/F-12 (Cytiva, SH30023.01), 2.5 mg/mL collagenase D (Roche, COLLD-RO), and 0.1 mg/mL DNaseI (Sigma-Aldrich, DN25). […]
To distinguish whether the inhibitory effect of 25-hydroxylanosterol is directly based on its effect on the liver or a systemic effect, we utilized 3D liver organoids as an in vitro model for the study of fatty liver to analyze the effect of 25-hydroxylanosterol on lipogenesis and fibrosis marker expression in liver organoids. […] RNA from the organoids was collected and analyzed for the differential expression of lipogenesis-related genes (Hmgcs, Hmgcr, SCD1, and FASN) and fibrosis markers (αSMA and Colla1) using fluorescent real-time quantitative PCR.
In FIGS. 35 and 36, data are represented as mean±standard deviation. P values were calculated using one-way ANOVA; ns indicates no statistical difference; * indicates P<0.05; ** indicates P<0.01; *** indicates P<0.001. In FIGS. 47 and 53, quantitative analysis was performed using ImageJ software. […] P values were calculated using one-way ANOVA; * indicates P<0.05; ** indicates P<0.01; *** indicates P<0.001.

[2] = test system: SREBP pathway; test: SREBP luciferase reporter gene system (SRE-luciferase assay) in Huh-7/SRE-Luc cells; format: cell-based; conditions: Homo sapiens, sterol-deficient medium, compound treatment 16 hours, luciferase/GFP ratio
Procedure, shortened: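 Huh-7 cells stably carrying an LDLR promoter (SRE)-luciferase and GFP were treated for 16 hours in sterol-deficient medium (5% lipoprotein-deficient serum, 2 μM lovastatin, 10 μM mevalonate) at […] compound, with DMSO vehicle. IC50 derived from the ratio of luciferase activity to GFP fluorescence.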

[3] = Liver microsomal metabolic stability assay; format: in vitro ADME; conditions: rat liver microsomes, NADPH, 37° C., 0-60 minutes; read-out: Rat microsomal metabolic half-life (t1/2)
Method: PBS solution (100 mM), MgCl2 solution (100 mM), and NADPH solution (20 mM) were prepared respectively. Compound and testosterone (positive control) stock solutions were then prepared with dimethyl sulfoxide (DMSO), diluted to 100 µM with methanol for sample incubation, and stored at −10 to −30° C. 12.5 μL of rat liver microsomes (purchased from XenoTech, Cat. No.: R1000, Lot No.: 1310030, specification: 20 mg/mL), 432.5 µL of PBS solution (100 mM), 25 µL of NADPH solution (20 mM), and 25 μL of MgCl2 solution (100 mM) were added to a 96-well plate, mixed well, and pre-incubated at 37° C. for 5 minutes. 5 µL of substrate (test compound) solution was added to start the reaction. At specified time points of 0, 5, 15, 30, 45, and 60 minutes (0 and 60 minutes for the negative control group), 50 µL of the incubated samples were added to a stop plate containing 100 µL of ice-cold stop solution, vortexed for 1 minute to inactivate the reaction, and stored at −60 to −90° C. for subsequent analysis. Sample analysis of the test compound and the control compound testosterone was performed using LC-MS/MS method. Chromatographic peaks were integrated, calculated, and processed using Analyst software. Semi-quantitative analysis was performed for both the test compound and the control compound testosterone by calculating peak area ratios.

Row | Compound | expression levels of lipogenesis-related genes (Hmgcs, Hmgcr, SCD1, and FASN) [1] | IC50 [2] [µM] | half-life at 1 µM [3] [h]
1 | CC[C@H]1[C@@H](O)[C@@H]2[C@H](CC[C@]3(C)[C@@H]([C@H](C)CCC(=O)O)CC[C@@H]23)[C@@]2(C)CC[C@@H](O)C[C@@H]12 [obeticholic acid, Obeticholic acid, reference compound] | failed to inhibit |  | 
2 | C[C@H](CCCC(C)(C)O)[C@H]1CC[C@H]2[C@@H]3CC[C@H]4[C@@H](O)[C@@H](O)CC[C@]4(C)[C@H]3CC[C@]12C [compound 198, 5α-Cholest-30,40,25-triol] |  | 0.106 | 1.2
3 | C[C@H](CCCC(O)c1ccccc1OC(F)(F)F)[C@H]1CC[C@H]2[C@@H]3CC[C@H]4[C@@H](O)[C@@H](O)CC[C@]4(C)[C@H]3CC[C@]12C (stereo partly drawn) [compound 317, 24-(hydroxy{2-[(trifluoromethyl)oxy]phenyl}methyl)-5α-cholan-3β,4β-diol] |  | 0.14 | 2.28
4 | C[C@H](CCCC(C)(C)O)[C@H]1CC[C@H]2[C@@H]3CC[C@H]4[C@H](O)[C@@H](O)CC[C@]4(C)[C@H]3CC[C@]12C [compound 204, 5α-cholest-3β,4α,25-triol] |  | 0.395 | 3.97
5 | C[C@H](CCCC(O)c1c(F)cccc1F)[C@H]1CC[C@H]2[C@H]3[C@H](CC[C@]12C)[C@@]1(C)CC[C@H](O)[C@H](O)[C@@H]1CC3(F)F (stereo partly drawn) [compound 300, (1R,3aS,3bS,5aR,6R,7S,9aR,9bS,11aR)-1-[(2R)-6-(2,6-difluorophenyl)-6-hydroxyhexan-2-yl]-4,4-difluoro-9a,11a-dimethylhexadecahydro-1H-cyclopenta[1,2-α]phenanthrene-6,7-diol] |  | 0.036 | 0.402
6 | COc1cc(F)ccc1C(O)CCC[C@@H](C)[C@H]1CC[C@H]2[C@@H]3CC[C@H]4[C@@H](O)[C@@H](O)CC[C@]4(C)[C@H]3CC[C@]12C (stereo partly drawn) [compound 306, 24-[(4-fluoro-2-methoxyphenyl)(hydroxy)methyl]-5α-cholan-3β,4β-diol] |  | 0.08 | 1.74
7 | C[C@H](CCC[C@@H](O)c1ccccc1F)[C@H]1CC[C@H]2[C@@H]3CC[C@H]4[C@@H](O)[C@@H](O)CC[C@]4(C)[C@H]3CC[C@]12C (single isomer, unassigned) [compound 279, 24-[R-(2-fluorophenyl)(hydroxy)methyl]-5α-cholan-30,40-diol or 24-[S-(2-fluorophenyl)(hydroxy)methyl]-5α-cholan-30,40-diol] |  | 0.196 | 0.922
8 | C[C@H](CCCC(C)(C)O)[C@H]1CC[C@H]2[C@H]3[C@H](CC[C@]12C)[C@@]1(C)CC[C@H](O)[C@H](O)[C@@H]1CC3(F)F [compound 274, (1R,3aS,3bS,5aR,6R,7S,9aR,9bS,11aR)-4,4-difluoro-1-[(2R)-6-hydroxy-6-methylheptan-2-yl]-9a,11a-dimethylhexadecahydro-1H-cyclopenta[1,2-a]phenanthrene-6,7-diol] |  | 0.313 | > 3.1
9 | COc1ccccc1C(O)CCC[C@@H](C)[C@H]1CC[C@H]2[C@@H]3CC[C@H]4[C@@H](O)[C@@H](O)CC[C@]4(C)[C@H]3CC[C@]12C (stereo partly drawn) [compound 287, 24-[Hydroxy(2-methoxyphenyl)methyl]-5α-cholan-30,40-diol] |  | 0.159 | 1.27
10 | C[C@H](CCCC(O)c1c(F)cc(F)cc1F)[C@H]1CC[C@H]2[C@@H]3CC[C@H]4[C@@H](O)[C@@H](O)CC[C@]4(C)[C@H]3CC[C@]12C (stereo partly drawn) [compound 275, 24-[(2,4,6-difluorophenyl)(hydroxy)methyl]-5α-cholan-3β,4β-diol] |  | 0.141 | 1.52
11 | C[C@H](CCCC(C)(C)O)[C@H]1CC[C@H]2[C@@H]3CC[C@H]4C(=O)[C@@H](O)CC[C@]4(C)[C@H]3CC[C@]12C [compound 238, 3β,25-Dihydroxy-5α-cholest-4-one] |  | 0.049 | 1.26
12 | C[C@H](CCCC(O)c1cccc(F)c1)[C@H]1CC[C@H]2[C@@H]3CC[C@H]4[C@@H](O)[C@@H](O)CC[C@]4(C)[C@H]3CC[C@]12C (stereo partly drawn) [compound 281, 24-[(3-fluorophenyl)(hydroxy)methyl]-5α-cholan-3β,4β-diol] |  | 0.111 | 1.17
13 | C[C@H](CCCC(C)(C)O)[C@H]1CC[C@H]2[C@H]3[C@H](CC[C@]12C)[C@@]1(C)CC[C@H](O)C(=O)[C@@H]1CC3(F)F [compound 302, (1R,3aS,3bS,5aR,7S,9aR,9bS,11aR)-4,4-difluoro-7-hydroxy-1-[(2R)-6-hydroxy-6-methylheptan-2-yl]-9a,11a-dimethylhexadecahydro-1H-cyclopenta[1,2-α]phenanthren-6-one] |  | 0.035 | 0.979
14 | C[C@H](CCCC(O)c1c(F)cccc1F)[C@H]1CC[C@H]2[C@@H]3CC[C@H]4[C@@H](O)[C@@H](O)CC[C@]4(C)[C@H]3CC[C@]12C (stereo partly drawn) [compound 284, 24-[(2,6-difluorophenyl)(hydroxy)methyl]-5α-cholan-3β,4β-diol] |  | 0.0874 | > 2
15 | C[C@H](CCCC(C)(C)O)[C@H]1CC[C@H]2[C@@H]3CC[C@H]4C[C@@H](O)CC[C@]4(C)[C@H]3CC[C@]12C [compound 185, cholest-3β,25-diol] |  | 0.233 | 3.17
